This note sets out measurements from ChEMBL document CHEMBL1136905, “Substituted isoxazole analogs of farnesoid X receptor (FXR) agonist GW4064” (Bioorg Med Chem Lett, 2009).

What is called EC50 is the concentration giving half of the maximal effect. The bioavailability is the share of a dose that reaches the circulation, judged against a reference dose that is usually intravenous. In general, clearance refers to the rate of elimination divided by the concentration.

Where only a bound is given, the exact number is not on record here.

Data set [1] deals with T1, Oxysterols receptor LXR-alpha (Homo sapiens, UniProt Q13133).
T1 sequence (Q13133 whole entry): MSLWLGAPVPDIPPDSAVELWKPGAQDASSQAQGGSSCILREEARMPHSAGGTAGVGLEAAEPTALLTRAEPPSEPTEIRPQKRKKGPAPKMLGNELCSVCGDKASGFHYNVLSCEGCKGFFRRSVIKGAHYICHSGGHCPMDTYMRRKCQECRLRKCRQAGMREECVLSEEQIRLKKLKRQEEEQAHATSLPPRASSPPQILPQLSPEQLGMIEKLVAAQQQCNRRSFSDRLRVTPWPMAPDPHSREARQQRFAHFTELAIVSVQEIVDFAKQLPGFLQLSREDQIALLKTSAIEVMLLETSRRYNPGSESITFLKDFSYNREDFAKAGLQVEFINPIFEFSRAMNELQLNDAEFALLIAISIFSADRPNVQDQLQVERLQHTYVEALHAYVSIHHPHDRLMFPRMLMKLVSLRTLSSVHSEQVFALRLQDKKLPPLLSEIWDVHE
As to the kind of experiment: Activity at LXRalpha assessed as coactivator peptide interaction with receptor ligand binding domain by FRET assay.

Data set [2] has as its target T2, Bile acid receptor (Homo sapiens) (UniProt Q96RI1).
T2 sequence (whole entry): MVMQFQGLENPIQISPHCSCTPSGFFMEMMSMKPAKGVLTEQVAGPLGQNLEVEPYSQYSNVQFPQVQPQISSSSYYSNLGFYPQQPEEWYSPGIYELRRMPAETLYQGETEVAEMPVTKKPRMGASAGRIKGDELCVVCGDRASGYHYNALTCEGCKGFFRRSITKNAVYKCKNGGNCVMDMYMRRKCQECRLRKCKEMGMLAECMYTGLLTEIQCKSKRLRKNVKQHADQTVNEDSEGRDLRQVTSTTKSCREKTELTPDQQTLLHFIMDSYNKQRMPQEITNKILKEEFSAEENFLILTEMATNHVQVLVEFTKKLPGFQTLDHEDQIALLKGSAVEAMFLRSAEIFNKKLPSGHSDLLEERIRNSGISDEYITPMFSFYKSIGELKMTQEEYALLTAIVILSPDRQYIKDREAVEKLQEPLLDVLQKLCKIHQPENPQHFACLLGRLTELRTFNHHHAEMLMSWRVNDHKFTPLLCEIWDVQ
As to the kind of experiment: Agonist activity at human FXR assessed as SRC1 peptide interaction with receptor ligand binding domain by FRET assay relative to GW-4064.

Data set [3] concerns the target T3, PXR (Nuclear receptor subfamily 1 group I member 2) (Homo sapiens, UniProt O75469).
T3 sequence (O75469 whole entry): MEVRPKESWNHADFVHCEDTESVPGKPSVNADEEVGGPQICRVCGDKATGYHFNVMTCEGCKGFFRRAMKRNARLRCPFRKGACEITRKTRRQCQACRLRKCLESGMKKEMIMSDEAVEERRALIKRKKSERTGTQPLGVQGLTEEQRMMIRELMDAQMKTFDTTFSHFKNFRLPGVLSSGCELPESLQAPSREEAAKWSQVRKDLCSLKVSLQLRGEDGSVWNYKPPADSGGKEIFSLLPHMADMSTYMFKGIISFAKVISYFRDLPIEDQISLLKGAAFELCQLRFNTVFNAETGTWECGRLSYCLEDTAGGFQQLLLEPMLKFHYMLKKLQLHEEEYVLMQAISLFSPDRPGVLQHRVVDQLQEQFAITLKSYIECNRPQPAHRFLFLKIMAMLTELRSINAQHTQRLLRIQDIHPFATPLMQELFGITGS
Nature of the data set: Activity at PXR assessed as coactivator peptide interaction with receptor ligand binding domain by scintillation proximity assay relative to standard control. To be noted: read-out: %max. (SPA uses beads or plates that emit light when radiolabelled molecules are held near them.)

The nature of data set [4]: Selectivity ratio of XC50 for LXRalpha to EC50 for human FXR.
A short description of data set [5]: Selectivity ratio of XC50 for RORalpha to EC50 for human FXR.
Data set [6] addresses T3, PXR (Nuclear receptor subfamily 1 group I member 2). Nature of the data set: Activity at PXR assessed as coactivator peptide interaction with receptor ligand binding domain by scintillation proximity assay.
In data set [7] the target is T4, Oxysterols receptor LXR-beta (Homo sapiens) (UniProt P55055).
T4 sequence (whole entry): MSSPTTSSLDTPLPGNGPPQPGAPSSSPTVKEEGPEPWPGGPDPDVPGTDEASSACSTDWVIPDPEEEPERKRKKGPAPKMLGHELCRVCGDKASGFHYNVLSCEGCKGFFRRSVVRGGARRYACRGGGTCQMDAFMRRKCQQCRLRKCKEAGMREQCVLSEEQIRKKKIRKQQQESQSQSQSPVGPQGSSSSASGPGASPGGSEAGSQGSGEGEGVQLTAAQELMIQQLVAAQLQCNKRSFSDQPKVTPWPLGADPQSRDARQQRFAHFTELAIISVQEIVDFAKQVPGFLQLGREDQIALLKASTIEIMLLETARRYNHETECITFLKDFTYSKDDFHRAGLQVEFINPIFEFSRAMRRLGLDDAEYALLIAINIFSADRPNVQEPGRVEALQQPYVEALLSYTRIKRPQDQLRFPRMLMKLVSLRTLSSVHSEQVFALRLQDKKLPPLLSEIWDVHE
Nature of the data set: Activity at LXRbeta assessed as coactivator peptide interaction with receptor ligand binding domain by scintillation proximity assay relative to standard control.

Data set [8] has as its target T5, Nuclear receptor subfamily 5 group A member 2 (Homo sapiens, UniProt O00482). Nature of the data set: Activity at LRH assessed as coactivator peptide interaction with receptor ligand binding domain by FRET assay relative to standard control.
Data set [9] can be described thus: Selectivity ratio of XC50 for LRH to EC50 for human FXR.
In data set [10] the target is T6, Bile acid receptor (Homo sapiens, UniProt Q96RI1).
T6 sequence (Q96RI1 whole entry): T2 sequence (whole entry)
Nature of the data set: Agonist activity at human FXR assessed as SRC1 peptide interaction with receptor ligand binding domain by FRET assay.

The target of data set [11] is T7, Oxysterols receptor LXR-beta (Homo sapiens, UniProt P55055).
T7 sequence (P55055 whole entry): T4 sequence (whole entry)
Nature of the data set: Activity at LXRbeta assessed as coactivator peptide interaction with receptor ligand binding domain by scintillation proximity assay.

Data set [12] deals with T5, Nuclear receptor subfamily 5 group A member 2. Nature of the data set: Activity at LRH assessed as coactivator peptide interaction with receptor ligand binding domain by FRET assay.
Data set [13] has as its target T8, Oxysterols receptor LXR-alpha (Homo sapiens) (UniProt Q13133).
T8 sequence (whole entry): T1 sequence (Q13133 whole entry)
Nature of the data set: Activity at LXRalpha assessed as coactivator peptide interaction with receptor ligand binding domain by FRET assay relative to standard control.

Data set [14] deals with T9, Nuclear receptor ROR-alpha (Homo sapiens, UniProt P35398).
T9 sequence (P35398 whole entry): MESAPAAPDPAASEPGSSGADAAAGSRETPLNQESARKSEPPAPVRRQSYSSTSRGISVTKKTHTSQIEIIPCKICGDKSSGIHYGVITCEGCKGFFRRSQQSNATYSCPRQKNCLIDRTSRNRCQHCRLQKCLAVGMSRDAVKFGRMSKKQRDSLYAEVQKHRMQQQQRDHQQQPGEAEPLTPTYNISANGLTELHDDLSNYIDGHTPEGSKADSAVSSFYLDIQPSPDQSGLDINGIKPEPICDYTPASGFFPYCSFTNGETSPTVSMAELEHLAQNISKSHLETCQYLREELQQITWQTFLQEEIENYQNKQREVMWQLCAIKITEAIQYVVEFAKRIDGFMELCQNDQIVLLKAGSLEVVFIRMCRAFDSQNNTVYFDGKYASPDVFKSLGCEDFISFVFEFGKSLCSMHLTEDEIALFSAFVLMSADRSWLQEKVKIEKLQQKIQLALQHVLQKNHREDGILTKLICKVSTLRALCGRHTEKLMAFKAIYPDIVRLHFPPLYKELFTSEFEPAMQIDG
Nature of the data set: Activity at RORalpha assessed as coactivator peptide interaction with receptor ligand binding domain by FRET assay.

Data set [15] deals with T2, Bile acid receptor (Homo sapiens). Nature of the data set: Agonist activity at human FXR transfected in african green monkey CV1 cells by luciferase reporter gene transient transfection assay relative to GW-4064. The data set is classed as functional, cell-based. Conditions: CV-1.
Data set [16] is described as follows: Selectivity ratio of XC50 for PXR to EC50 for human FXR.
The target of data set [17] is T6, Bile acid receptor. As to the kind of experiment: Agonist activity at human FXR transfected in african green monkey CV1 cells by luciferase reporter gene transient transfection assay. The format is functional, cell-based, CV-1. On the technique in general: A reporter such as luciferase makes a cellular process visible.
Data set [18] can be described thus: Selectivity ratio of XC50 for LXRbeta to EC50 for human FXR.
In data set [19] the target is T6, Bile acid receptor. As to the kind of experiment: Agonist activity at human FXR assessed as SRC1 coactivator peptide recruitment by cell free FRET assay. The format is functional.
A short description of data set [20]: Volume of distribution at steady state in iv dosed rat. The data set is classed as ADME, organism-based. To be noted: in vivo, read-out: Vdss.
The nature of data set [21]: Terminal half life in iv dosed rat. The format is ADME, organism-based. Conditions: in vivo, read-out: beta t1/2.
Data set [22] can be described thus: Oral bioavailability in rat. The data set is classed as ADME, organism-based. Conditions: in vivo.
Data set [23] is described as follows: Total clearance in iv dosed rat. The format is ADME, organism-based. Conditions: in vivo.

T5 sequence (O00482 whole entry, the tested form may be a part): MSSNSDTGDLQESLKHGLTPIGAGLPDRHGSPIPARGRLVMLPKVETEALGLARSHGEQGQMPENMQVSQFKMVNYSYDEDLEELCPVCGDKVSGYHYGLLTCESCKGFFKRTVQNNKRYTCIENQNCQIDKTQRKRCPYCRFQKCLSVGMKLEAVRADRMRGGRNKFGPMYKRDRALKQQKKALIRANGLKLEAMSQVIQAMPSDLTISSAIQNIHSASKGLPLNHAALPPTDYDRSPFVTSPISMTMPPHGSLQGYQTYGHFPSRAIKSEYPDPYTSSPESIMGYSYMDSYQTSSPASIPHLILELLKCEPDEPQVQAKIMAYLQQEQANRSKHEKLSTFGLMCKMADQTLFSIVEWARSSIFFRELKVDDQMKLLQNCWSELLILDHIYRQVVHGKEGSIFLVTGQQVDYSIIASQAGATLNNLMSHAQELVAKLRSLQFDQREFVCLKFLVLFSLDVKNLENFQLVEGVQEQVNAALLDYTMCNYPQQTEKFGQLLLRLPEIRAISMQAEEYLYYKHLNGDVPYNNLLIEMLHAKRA

For the compound `CC(C)c1onc(C[S+]([O-])c2c(Cl)cccc2Cl)c1COc1ccc(/C=C/c2cccc(C(=O)O)c2)c(Cl)c1` (stereo unspecified), the XC50 in data set [1] was 1400 nM; in data set [6], 960 nM; in [11], 2500 nM; in data set [12] it was 4200 nM; in data set [14], more than 10000 nM. The %max in data set [2] turned out to be 110%; in data set [7] it was 101%; in [8], 46%; in [13], 33%; in data set [15] it was 100%. In addition, the Emax in data set [3] stood at 100%. The Ratio in data set [4], in data set [5], in data set [9], in [16] and in [18] was 100 in each case. Further, the EC50 in [10] is 28 nM; in data set [17], 72 nM.
Regarding `CC(C)c1onc(COc2ccccc2Cl)c1COc1ccc(/C=C/c2cccc(C(=O)O)c2)c(Cl)c1`, the %max in [2] was found to be 82%; in data set [15], 71%. In addition, the figures for the EC50 in data set [10] and in [19] were 460 nM and 82 nM, respectively.
For the compound `CC(C)c1onc(-c2c(Cl)cncc2Cl)c1COc1ccc(/C=C/c2cccc(C(=O)O)c2)c(Cl)c1`, the values for the %max in data set [2] and in data set [15] were 97% and 88%, respectively. Besides, in data set [20], the Vd was found to be 1.1 L/kg. Also, the EC50 in data set [10] worked out at 150 nM; in data set [17], 52 nM. In addition, in data set [21], the half-life is 0.867 h. Further, in data set [22], the bioavailability stood at 7.8%. The compound further gave a clearance in [23] of 48 mL/min/kg.
Take `CC(C)c1onc(COc2cccc(Cl)c2)c1COc1ccc(/C=C/c2cccc(C(=O)O)c2)c(Cl)c1`: the results for the %max in data set [2] and in data set [15] were 51% and 42%, respectively. The EC50 in data set [10] is 310 nM; in data set [19], 2000 nM.
For `CC(C)c1onc(COc2c(Cl)cc(F)cc2Cl)c1COc1ccc(/C=C/c2cccc(C(=O)O)c2)c(Cl)c1`, the %max in [2] came out at 112%; in data set [15], 56%. In addition, the Vd in data set [20] is 1.4 L/kg. Besides, the EC50 came to 87 nM in data set [10] and 540 nM in [19]. Further, the half-life in data set [21] came to 2.33 h. In data set [22], this compound registered a bioavailability of 1.9%. The same compound yielded a clearance in data set [23] of 15 mL/min/kg.
Turning to `CC(C)c1onc([C@H]2C[C@@H]2c2c(Cl)cccc2Cl)c1COc1ccc(/C=C/c2cccc(C(=O)O)c2)c(Cl)c1` (relative stereo), in data set [2], the %max stood at 38%. Moreover, the EC50 in [10] is 2000 nM; in data set [19] it was more than 10000 nM.
For `CC(C)c1onc(COc2cc(Cl)cc(Cl)c2)c1COc1ccc(/C=C/c2cccc(C(=O)O)c2)c(Cl)c1` the same measures were 40%, 1100 nM and more than 10000 nM.
As for `CC(C)c1onc(CNc2c(Cl)cccc2Cl)c1COc1ccc(/C=C/c2cccc(C(=O)O)c2)c(Cl)c1`, the %max in data set [2] was determined as 104%; in data set [15], 70%. In addition, the Vd in data set [20] was 2.1 L/kg. The EC50 in data set [10] is 72 nM; in data set [17], 140 nM. The half-life in data set [21] amounted to 2.33 h. The bioavailability in [22] stood at 2.6%. The compound further yielded a clearance in data set [23] of 16 mL/min/kg.
For the compound `CC(C)c1onc(COc2c(Cl)cccc2Cl)c1COc1ccc(/C=C/c2cccc(C(=O)O)c2)c(Cl)c1`, the %max in data set [2] amounted to 102%; in data set [15], 89%. In data set [20], the Vd amounted to 1.2 L/kg. Besides, the results for the EC50 in data set [10] and in [17] were 78 nM and 89 nM, respectively. Moreover, the half-life in data set [21] was 2.17 h. The compound further had a bioavailability in data set [22] of 9.2%. In data set [23], this compound displayed a clearance of 20 mL/min/kg.
As for `CC(C)c1onc(-c2c(Cl)cccc2Cl)c1COc1ccc(/C=C/c2cccc(C(=O)O)c2)c(Cl)c1`, the %max in data set [2] and in data set [15] was 100% each time. The clearance in data set [23] turned out to be 36 mL/min/kg.
As for `CCC(CC)c1onc(-c2c(Cl)cccc2Cl)c1COc1ccc(/C=C/c2cccc(C(=O)O)c2)c(Cl)c1`, the results for the %max in data set [2] and in data set [15] were 82% and 71%, respectively. Further, the half-maximal effective concentration (EC50) turned out to be 2200 nM in [10] and 280 nM in data set [19].
